The source made the active and inactive calls. The rule behind the calls is not given here.
What was measured:
Huh-7 [1] = assay: Downregulation of Spermidine contents in human Huh-7 cells measured after 24 hrs by HPLC analysis; type: functional, cell-based
Huh-7 [2] = assay: Downregulation of Spermine contents in human Huh-7 cells measured after 24 hrs by HPLC analysis; type: functional, cell-based
HepG2 [3] = assay: Induction of apoptosis in human HepG2 cells assessed as induction of DNA damage by measuring upregulation of gammaH2AX expression at 5 to 15 uM; type: functional, cell-based; details: dose 5-15 µM
[4] = Antitumor activity against human HCC cells xenografted in BALB/c mouse assessed as tumor volume administered iv once daily for 7 days measured on day 7 (reference value: 910 mm3); type: functional; details: time 7 day
[5] = Toxicity in BALB/c mouse xenografted with human HCC cells assessed as body weight at 1 to 5 mg/kg, iv administered once daily for 7 days; type: organism-based; details: in vivo, 168 h, dose 1-5 mg/kg, time 7 day
[6] = Toxicity in BALB/c mouse xenografted with human HCC cells assessed as effect on heart weight index at 1 to 5 mg/kg, iv administered once daily for 7 days; type: organism-based; details: in vivo, 168 h, dose 1-5 mg/kg, time 7 day
[7] = Toxicity in BALB/c mouse xenografted with human HCC cells assessed as effect on liver weight index at 1 to 5 mg/kg, iv administered once daily for 7 days; type: organism-based; details: in vivo, 168 h, dose 1-5 mg/kg, time 7 day
[8] = Toxicity in BALB/c mouse xenografted with human HCC cells assessed as effect on spleen weight index at 1 to 5 mg/kg, iv administered once daily for 7 days; type: organism-based; details: in vivo, 168 h, dose 1-5 mg/kg, time 7 day
[9] = Toxicity in BALB/c mouse xenografted with human HCC cells assessed as effect on kidney weight index at 1 to 5 mg/kg, iv administered once daily for 7 days; type: organism-based; details: in vivo, 168 h, dose 1-5 mg/kg, time 7 day
[10] = Toxicity in BALB/c mouse xenografted with human HCC cells assessed as effect on lung weight index at 1 to 5 mg/kg, iv administered once daily for 7 days; type: organism-based; details: in vivo, 168 h, dose 1-5 mg/kg, time 7 day
[11] = Toxicity in BALB/c mouse xenografted with human HCC cells assessed as effect on body weight at 1 to 5 mg/kg, iv administered once every 2 days for 14 days; type: organism-based; details: in vivo, 336 h, dose 1-5 mg/kg, time 14 day
[12] = Drug uptake in endoplasmic reticulum of human HepG2 cells at 10 uM incubated for 8 hrs by ER-tarcker dye based laser confocal microscopy; type: ADME, subcellular; details: hepg2, 8 h
[13] = Drug uptake in mitochondria of human HepG2 cells at 10 uM incubated for 8 hrs by Mito-tarcker dye based laser confocal microscopy; type: ADME; details: hepg2, 8 h
[14] = Drug uptake in golgi apparatus of human HepG2 cells at 10 uM incubated for 8 hrs by Golgi-tracker dye based laser confocal microscopy; type: ADME, subcellular, Golgi body; details: hepg2, 8 h
[15] = Drug uptake in lysosomes of human HepG2 cells at 10 uM incubated for 8 hrs by Lyso-tracker dye based laser confocal microscopy; type: ADME, subcellular, Lysosome; details: hepg2, 8 h
A549 [16] = assay: Inhibition of tumor metastasis in cisplatin-resistant human A549 cells assessed as downregulation of HMGB1 protein expression level measured after 24 hrs by western blot analysis; type: functional, cell-based; details: dose 5-15 µM
A549 [17] = assay: Inhibition of tumor metastasis in cisplatin-resistant human A549 cells assessed as downregulation of LC3-II protein expression level at 5 to 15 uM measured after 24 hrs by western blot analysis; type: functional, cell-based; details: dose 5-15 µM
A549 [18] = assay: Inhibition of tumor metastasis in cisplatin-resistant human A549 cells assessed as upregulation of LC3-I protein expression level at 5 to 15 uM measured after 24 hrs by western blot analysis; type: functional, cell-based; details: dose 5-15 µM
HepG2 [19] = assay: Inhibition of tumor metastasis in human HepG2 cells assessed as upregulation of p53 gene expression level at 5 to 15 uM measured after 24 hrs by qRT-PCR analysis; type: functional, cell-based; details: dose 5-15 µM
HepG2 [20] = assay: Inhibition of tumor metastasis in human HepG2 cells assessed as upregulation of SSAT protein expression level at 5 to 15 uM measured after 24 hrs by western blot analysis; type: functional, cell-based; details: dose 5-15 µM
A549 [21] = assay: Inhibition of tumor metastasis in cisplatin-resistant human A549 cells assessed as upregulation of p62 protein expression level at 5 to 15 uM measured after 24 hrs by western blot analysis; type: functional, cell-based; details: dose 5-15 µM
HepG2 [22] = assay: Potency index, ratio of amonafide IC50 to test compound IC50 for human HepG2 cells by MTT assay; type: functional
HepG2 [23] = assay: Potency index, ratio of cisplatin IC50 to test compound IC50 for human HepG2 cells by MTT assay; type: functional
Huh-7 [24] = assay: Potency index, ratio of amonafide IC50 to test compound IC50 for human Huh-7 cells by MTT assay; type: functional
Huh-7 [25] = assay: Potency index, ratio of cisplatin IC50 to test compound IC50 for human Huh-7 cells by MTT assay; type: functional
[26] = Ratio of amonafide IC50 to test compound IC50 for human MDA-MB-231 cells by MTT assay; type: functional
MDA-MB-231 = assay: Potency index, ratio of cisplatin IC50 to test compound IC50 for human MDA-MB-231 cells by MTT assay; type: functional
[27] = Ratio of amonafide IC50 to test compound IC50 for human MCF7 cells by MTT assay; type: functional
[28] = Ratio of cisplatin IC50 to test compound IC50 for human MCF7 cells by MTT assay; type: functional
A549 [29] = assay: Potency index, ratio of amonafide IC50 to test compound IC50 for human A549 cells by MTT assay; type: functional
[30] = Ratio of cisplatin IC50 to test compound IC50 for human A549 cells by MTT assay; type: functional
[31] = Ratio of amonafide IC50 to test compound IC50 for cisplatin-resistant human A549 cells by MTT assay; type: functional
[32] = Potency index, ratio of cisplatin IC50 to test compound IC50 for cisplatin-resistant human A549 cells by MTT assay; type: functional

Drug uptake [12]: Not Active
Drug uptake [13]: Not Active
Drug uptake [14]: Not Active
Drug uptake [15]: Active
SMILES: NCCCCNCCCCNCCCCN1C(=O)c2cccc3cc(NC(=O)CN)cc(c23)C1=O
inhibition (Huh-7 [1]): Active
inhibition (Huh-7 [2]): Active
Activity (HepG2 [3]): Active
Activity [4]: 400 mm3
Activity [5]: Non-Toxic
Activity [6]: Non-Toxic
Activity [7]: Non-Toxic
Activity [8]: Non-Toxic
Activity [9]: Non-Toxic
Activity [10]: Non-Toxic
Activity [11]: Non-Toxic
inhibition (A549 [16]): Dose-Dependent Effect
inhibition (A549 [17]): Active
inhibition (A549 [18]): Active
inhibition (HepG2 [19]): Active
inhibition (HepG2 [20]): Active
inhibition (A549 [21]): Active
Ratio IC50 (HepG2 [22]): 7.1
Ratio IC50 (HepG2 [23]): 6.74
Ratio IC50 (Huh-7 [24]): 8.69
Ratio IC50 (Huh-7 [25]): 15.33
Ratio IC50 [26]: 0.99
Ratio IC50 (MDA-MB-231): 2.11
Ratio IC50 [27]: 0.67
Ratio IC50 [28]: 0.59
Ratio IC50 (A549 [29]): 1.15
Ratio IC50 [30]: 0.5
Ratio IC50 [31]: 0.62
Ratio IC50 [32]: 2.76
